Laboratory results: US20130225548A1, “Pyridine Derivative and Medicinal Agent” (NIPPON SHINYAKU CO., LTD., priority 2010, published 2013)
Counter-ions that a name gives are not always drawn.

biological target: T1, Syk tyrosine kinase (Homo sapiens, UniProt P43405); experiment: Test for Syk tyrosine kinase inhibitory activity (ELISA); assay type: biochemical; settings: Syk tyrosine kinase (Carna Biosciences), 25 μM ATP in substrate solution, 30° C. 1 hour, n=2; read-out: Evaluation (IC50, concentration inhibiting the tyrosine kinase activity at 50%)
T1 construct: purchased Carna Biosciences, Inc
Experimental: Test Example 1: Test for Syk Tyrosine Kinase Inhibitory Activity
1. Preparation of Test Substance
A test substance was prepared at 10 mM in dimethyl sulfoxide (DMSO), and further diluted with DMSO to concentrations of 1000, 300, 100, 30, 10, 3, 1, 0.3, 0.1, 0.03, and 0.01 μM. The resulting solutions were further diluted to 20-fold with an assay buffer, whereby test substance solutions were prepared. As a negative control, a solution obtained by diluting DMSO to 20-fold with an assay buffer was used. As the assay buffer, a buffer containing 15 mM Tris-HCl (pH 7.5), 0.01 (v/v) % Tween-20, and 1 mM dithiothreitol was used.
2. Measurement of Syk Tyrosine Kinase Inhibitory Activity
The activity was measured using the ELISA method. Each of the test substance solutions was added to a streptavidine-coated 96-well place (DELFIA Strip Plate 8×12 wells, PerkinElmer Co., Ltd,) at 10 μL per well (n=2), and a substrate solution (625 nM biotinylated peptide substrate, 25 μM ATP, 25 mM MgCl2, 15 mM Tris-HCl (pH 7.5), 0.01 (v/v) % Tween-20, 1 mM dithiothreitol) was added to the plate at 20 μL per well, and the resulting mixture was stirred. Finally, Syk tyrosine kinase (Carna Biosciences, Inc.) (previously diluted to 0.025 nM with the assay buffer) was added to the plate at 20 μL per well, and the resulting mixture was stirred. A reaction was allowed to proceed at 30° C. for 1 hour. After the plate was washed 4 times with a washing buffer (50 mM Tris-HCl (pH 7.5, 150 mM NaCl, 0.02 (v/v) % Tween-20), a blocking buffer (0.1% bovine serum albumin, 50 mM Tris-HCl (pH 7.5), 150 mM NaCl, 0.02 (v/v) % Tween-20) was added to the plate at 150 μL per well, and blocking was performed at 30° C. for 30 minutes. Then, the blocking buffer was removed, and a horseradish peroxidase-labeled anti-phosphorylated tyrosine antibody (BD Biosciences, Inc.) (previously diluted to 10000-fold with the blocking buffer) was added to the plate at 100 μL per well, and the plate was incubated at 30° C. for 30 minutes. After the plate was washed 4 times with the washing buffer, a 3,3′,5,5′-tetramethylbenzidine solution (Sigma-Aldrich Co., Ltd.) was added to the plate at 100 μL per well to develop the color for 10 minutes. The reaction was stopped by adding 0.1 M sulfuric acid at 100 μL per well. The absorbance at 450 nm was measured using a microplate reader (Multiskan F C, Thermo Fisher Scientific K,K.).
3. Analysis of Measurement Results
A non-linear regression analysis was performed for the measured absorbance using the SAS system (SAS institute. Inc.), and a concentration of each of the test substances: inhibiting the tyrosine kinase activity at 50% (IC50 ) was calculated. A case where IC50 is […] was evaluated as ***, a case where IC50 is 5 nM or more and less than 50 nM was evaluated as **, and a case where IC50 is 50 nM or more and less than 500 nM was evaluated as *, which are shown in the column of evaluation item.

Row | Compound | IC50 [µM]
1 | 2-({4-cyclopropyl-6-[2-ethyl-1-(trans-4-hydroxycyclohexyl)-1H-benzimidazol-6-yl]pyridin-2-yl}amino)pyridine-4-carbonitrile hydrochloride [Example 157] | < 0.005
2 | 2-({6-[1-(4-cyanopiperidin-1-yl)isoquinolin-7-yl]-4-cyclopropylpyridin-2-yl}amino)pyridine-4-carbonitrile hydrochloride [Example 170] | 0.005 to 0.05
3 | CC(=O)O[C@@H]1CCC[C@H]1n1cnc2ccc(-c3cc(C4CC4)cc(Nc4cc(C#N)ccn4)n3)cc21 (relative stereo) [Example 141, trans-2-(6-{6-[(4-cyanopyridin-2-yl)amino]-4-cyclopropylpyridin-2-yl}-1H-benzimidazol-1-yl)cyclopentyl acetate hydrochloride] | 0.05 to 0.5
4 | N#Cc1ccnc(Nc2cc(C3CC3)cc(-c3ccc4c(c3)ncn4[C@@H]3CCCC[C@H]3O)n2)c1 (relative stereo) [Example 152, 2-[(4-cyclopropyl-6-{1-[trans-2-hydroxycyclohexyl]-1H-benzimidazol-5-yl}pyridin-2-yl)amino]pyridine-4-carbonitrile hydrochloride] | 0.05 to 0.5
5 | N#Cc1ccnc(Nc2cc(C3CC3)cc(-c3ccc(N4CCNC(=O)C4)nc3)n2)c1 [Example 5, 2-{[4-cyclopropyl-6′-(3-oxopiperazin-1-yl)-2,3′-bipyridin-6-yl]amino}pyridine-4-carbonitrile hydrochloride] | 0.005 to 0.05
6 | N#Cc1ccnc(Nc2cc(C3CC3)cc(-c3ccc(N4CC(O)C4)nc3)n2)c1 [Example 6, 2-{[4-cyclopropyl-6′-(3-hydroxyazetidin-1-yl)-2,3′-bipyridin-6-yl]amino}pyridine-4-carbonitrile hydrochloride] | 0.005 to 0.05
7 | N#Cc1ccnc(Nc2cc(C3CC3)cc(-c3ccc(N4CCN(CC(N)=O)CC4)nc3)n2)c1 [Example 7, 2-(4-{6-[(4-cyanopyridin-2-yl)amino]-4-cyclopropyl-2,3′-bipyridin-6′-yl}piperazin-1-yl)acetamide hydrochloride] | 0.05 to 0.5
8 | N#Cc1ccnc(Nc2cc(C3CC3)cc(-c3ccc(N4C[C@H](O)CC4=O)nc3)n2)c1 [Example 8, 2-({4-cyclopropyl-6′-[(4R)-4-hydroxy-2-oxopyrrolidin-1-yl]-2,3′-bipyridin-6-yl}amino)pyridine-4-carbonitrile hydrochloride] | 0.05 to 0.5

Continued, values first:

Row | IC50 [µM] | Compound
9 | 0.005 to 0.05 | N#Cc1ccnc(Nc2cc(C3CC3)cc(-c3ccc4ncn([C@@H]5CCCC[C@H]5O)c4c3)n2)c1 (relative stereo) [Example 146, 2-[(4-cyclopropyl-6-{1[trans-2-hydroxycyclohexyl]-1H-benzimidazol-6-yl}pyridin-2-yl)amino]pyridine-4-carbonitrile hydrochloride]
10 | 0.005 to 0.05 | N#Cc1ccnc(Nc2cc(C3CC3)cc(-c3ccc(N4CCOCC4)nc3)n2)c1 [Example 1, 2-{[4-cyclopropyl-6′-(morpholin-4-yl)-2,3′-bipyridin-6-yl]amino}pyridine-4-carbonitrile hydrochloride]
11 | 0.005 to 0.05 | N#Cc1ccnc(Nc2cc(C3CC3)cc(-c3ccc(NCCO)nc3)n2)c1 [Example 2, 2-({4-cyclopropyl-6′-[(2-hydroxyethyl)amino]-2,3′-bypyridin-6-yl}amino)pyridine-4-carbonitrile hydrochloride]
12 | < 0.005 | N#Cc1ccnc(Nc2cc(C3CC3)cc(-c3ccc(N4CCS(=O)(=O)CC4)nc3)n2)c1 [Example 3, 2-{[4-cyclopropyl-6′-(1,1-dioxidethiomorpholin-4-yl)-2,3′-bipyridin-6-yl]amino}pyridine-4-carbonitrile hydrochloride]
13 | 0.005 to 0.05 | N#Cc1ccnc(Nc2cc(C3CC3)cc(-c3ccc(N4CCC(=O)CC4)nc3)n2)c1 [Example 4, 2-{[4-cyclopropyl-6′-(4-oxopiperidin-1-yl)-2,3′-bipyridin-6-yl]amino}pyridine-4-carbonitrile hydrochloride]
